# Source: patent publication US20240299435A1, “COMPOSITIONS CONTAINING ADENOSINE TRIPHOSPHATE (ATP) AND METHODS OF USE FOR COGNITIVE FUNCTION” (priority 2021, published 2024)
# Columns and labels:
# [1] = Dynavision D2 Mode A (proactive) visuomotor reaction time task before and after a 3-minute all-out cycling test (3 MT); assay type: in vivo, human; conditions: at 60 P; p=0.028
# Description: (§1) This study followed a double-blind, randomized cross-over design. Participants were randomized to either PeakATP or Placebo and consumed their assigned supplement for a period of 14-days. Following supplementation, participants reported back to the lab within 24-hours for the first of two experimental trials, which occurred in a randomized, counterbalanced cross-over fashion. During experimental trial 1 (T1), participants ingested an acute dose of their assigned supplement 30 minutes before completing pre-testing assessments (Dynavision D2) followed by a 3-minute all-out high-intensity effort (3 MT) on a cycle ergometer. […]
# (§2) A convenience sample of healthy, recreationally active individuals were recruited. […] To be included in this study, participants were required to be healthy and ready for activity as determined by physical activity readiness questionnaire (Par-Q+) and Medical History questionnaire (MHQ), be classified as recreationally active (≥150 minutes exercise per week) and not be taking and be willing to abstain from creatine or beta-alanine supplementation or be willing to complete a 4-week wash-out period prior to enrolling if taking creatine or beta-alanine and be willing to abstain from supplementing with either for the duration of the study. […]
# (§3) Reaction time was assessed using the Dynavision D2 visuomotor training device. […]
# [2] = Dynavision D2 Mode B (reactive) visuomotor reaction time task with cognitive stressor before and after a 3-minute all-out cycling test (3 MT); assay type: in vivo, human
# Description: as §1, §2, §3
# [3] = 225 mg per day enteric-coated ATP for 15 days; cited from earlier work
# [4] = 400 mg per day ATP for 15 days; cited from earlier work
smiles,measurement,setting,value
"Nc1ncnc2c1ncn2[C@@H]1O[C@H](COP(=O)(O)OP(=O)(O)OP(=O)(O)O)[C@@H](O)[C@H]1O [ATP, adenosine-5′-triphosphate]",Mode A number of hits compared to placebo,[1],significantly greater
same,Mode B avgRT compared to PRE,[2]; at IP (p=0.015) and 60 P (p=0.001),significantly faster
same,Mode B avgRT compared to placebo,"[2]; at any time point, p's>0.05",not significantly different
same,total bench press lifting volume and within-group set-one repetitions to failure,[3],increased
same,minimum peak torque in set two of a knee extensor bout,[4],increased
